Reference: patent US10226457B2, “Systems and methods for treating an opioid-induced adverse pharmacodynamic response” (Purdue Pharma L.P., priority 2014, dated 2019)

Key:
male Sprague-Dawley rats [1] = test: Charcoal meal GI transit, opioid alone; details: for GI transit (% of the small intestine travelled by a charcoal meal): vs vehicle
Procedure: 0.5 hour later, a charcoal meal (1 ml/100 grams) was orally administered (PO) to the test subjects.
One hour after the charcoal meal, the test subjects were euthanized by CO2 and the gastrointestinal tract was removed from the stomach to the cecum. The length of the small intestine and the distance (cm) to the leading edge of the charcoal were recorded. Data were analyzed using a one-way ANOVA followed by the Dunnett's Multiple Comparisons test where *P<0.05, **P<0.01 and***P<0.001.
The length of the small intestine and the distance (cm) to the leading edge of the charcoal were recorded. Data were analyzed using a one-way ANOVA followed by Bonferroni's Multiple Comparisons Test where *P<0.05, **P<0.01 and ****P<0.001 vs. vehicle. Data are represented as the means+S.E.M.
One hour after charcoal, all rats were euthanized by CO2 and the GI tract was removed from the stomach to the cecum. The length of the small intestine and the distance (cm) to the leading edge of charcoal was recorded. Data were analyzed using a one-way ANOVA with Bonferonni's Post-Test where ****P<0.0001 vs. vehicle. Data are represented as the means+S.E.M.
One hour later, the rats were euthanized by CO2 and the gastrointestinal tract was removed from the stomach to the cecum. The length of the small intestine and the distance (cm) to the leading edge of charcoal were recorded. Data were analyzed using a one-way ANOVA followed by the Dunnett's Multiple Comparisons test where ***P<0.001. Data are represented as the mean+S.E.M.
Rats were dosed with Oxycodone HCl/Oxy or vehicle (water) PO once daily for 5 days (chronic). Additional groups were dosed only once on day 5 (acute). […] One hour after charcoal, all rats were euthanized by CO2 and the GI tract was removed from the stomach to the cecum. The length of the small intestine and the distance (cm) to the leading edge of charcoal was recorded. Data were analyzed using a one-way ANOVA with Bonferonni's Multiple Comparison Test where * P<0.05, ****P<0.0001 vs. vehicle (chronic), ### vs. oxycodone (acute). Data are represented as the means+S.E.M.

male Sprague-Dawley rats [2] = test: Rat hot plate assay; details: for hot plate MED (acute pain): 52° C., cutoff 30 seconds
Procedure: Morphine sulphate (1-10 mg/kg) was dissolved in 0.9% normal saline solution (NSS)(vehicle) and administered SC 1 hour prior to testing against vehicle. Data were analyzed by a two-way ANOVA using a Bonferroni Multiple Comparison Test,***P<0.001.
Morphine sulphate (1-10 mg/kg) was dissolved in 0.9% normal saline solution (NSS)(vehicle) and administered SC 1 hour prior to testing against vehicle. % MPE=Percent Maximum Possible Effect. % MPE=(test latency-baseline)/(cutoff-baseline). Data was analyzed using a Bonferroni Multiple Comparison Test,***P<0.001.
Morphine sulphate (10 mg/kg), the positive control, was dissolved in 0.9% NSS (vehicle). The formulations were administered SC 1 hour prior to testing against vehicle. Data were analyzed by a two-way ANOVA using a Bonferroni multiple comparisons test, where *P<0.05 and ***P<0.001. Data are represented as the means+S.E.M.
Morphine sulphate (10 mg/kg) was dissolved in 0.9% NSS (vehicle). The formulations were administered SC 1 hour prior to testing against vehicle. % MPE=Percent Maximum Possible Effect. % MPE=(test latency-baseline)/(cutoff (30 s)-baseline). Data were analyzed by a two-way ANOVA using Bonferroni Multiple Comparisons test for post-hoc analysis, where *P<0.05 and ***P<0.001. Data are represented as the means+SEM.
The positive control, morphine sulfate in 0.9% NS, was administered SC 1 hour prior to testing. Rats were assessed one day prior (BL) and then 1, 3 and 5 hours post-dosing. Hot Plate was set to 52° C. and cutoff was 30 seconds. Data were analyzed by a two-way ANOVA using a Bonferroni Multiple Comparisons Test, where *P<0.05, ***P<0.001 and ****P<0.0001 versus vehicle. Data are represented as the means+S.E.M from two combined studies.
Oxycodone hydrochloride (0.3-5 mg/kg) was dissolved in 0.9% normal saline solution (NSS)(vehicle) and administered SC 1 hour prior to testing against vehicle. Hot plate was set to 52° C. and cutoff was 30 seconds. Data were analyzed by a two-way ANOVA using a Bonferroni multiple comparisons test, where ****P<0.0001. Data are represented as the means+S.E.M.
Compound was administered SC 1 hour prior to testing. Oxycodone hydrochloride (0.3-5 mg/kg) was dissolved in 0.9% normal saline solution (NSS)(vehicle) and administered SC 1 hour prior to testing against vehicle. Hot plate was set to 52° C. and cutoff was 30 seconds. % MPE=. Percent Maximum Possible Effect. % MPE=(test latency-baseline)/(cutoff (30 s)-baseline). Data were analyzed by a two-way ANOVA using Bonferroni Multiple Comparisons test for post-hoc analysis, ****P<0.000. Data are represented as the means+SEM.
Oxycodone HCl was administered SC 1 hour prior to testing. Thermal latency was assessed the day prior (BL) and then 1, 3 and 5 hours post-oxycodone dosing. The hotplate was set to 52° C. and the cutoff was 30 seconds. Oxycodone was dissolved in 0.9% NS (vehicle). […] Data were analyzed by a two-way ANOVA using the Bonferroni Multiple Comparisons test for post-hoc analysis where, ***P<0.001. Data are represented as the means+SEM.
Oxycodone HCl was administered PO 1 hour prior to testing, while morphine sulfate, the positive control, was administered SC 1 hour prior to testing. Behavior was assessed the day prior (BL) and then 1, 3, 5 and 24 hours post-compound administration. The hot plate was set to 52° C. and the cutoff was 30 seconds. Oxycodone was dissolved in water (vehicle), while morphine sulfate was dissolved in 0.9% NS. Data were analyzed by a two-way ANOVA using a Bonferroni Multiple Comparisons Test, where ****P<0.0001.
Rats were assessed for thermal latency the day prior to dosing, then 1.5, 3 and 5 hours post-morphine administration. Data were analyzed by a two-way ANOVA using the Bonferroni Multiple Comparisons Test, where ****P<0.0001 compared to vehicle+vehicle. Data are represented as the means+S.E.M.

male Sprague-Dawley rats [3] = test: Stomach weight (gastric emptying) after charcoal meal; format: in vivo, rat; details: morphine sulfate 1-10 mg/kg SC, 0.5 hour before charcoal meal; vs vehicle
Procedure: Morphine sulfate (1-10 mg/kg) or 0.9% normal saline (vehicle) was administered SC to the test subjects. 0.5 hour later, a charcoal meal (1 ml/100 grams) was administered PO to the test subjects. One hour after the charcoal meal, the test subjects were euthanized by CO2 and the stomachs were removed and weighed. Data were analyzed using a one-way ANOVA followed by the Dunnett's Multiple Comparisons test where *P<0.05, **P<0.01 and ***P<0.001. […] This effect was dose dependent with a greater magnitude of effect observed with increasing dose.

male Sprague-Dawley rats [4] = test: Rat tail flick assay; details: for tail flick MED (acute pain): intensity 40, cutoff 20 seconds
Procedure: Morphine sulphate (1-10 mg/kg) was dissolved in 0.9% normal saline solution (NSS)(vehicle) and administered SC 1 hour prior to testing against vehicle. Data were analyzed by a two-way ANOVA using a Bonferroni post-hoc test, *P<0.05, ***P<0.001.
Morphine sulphate (1-10 mg/kg) was dissolved in 0.9% normal saline solution (NSS)(vehicle) and administered SC 1 hour prior to testing against vehicle. % MPE=Percent of Maximum Possible Effect. % MPE=(test latency-baseline)/(cutoff(20 s)-baseline)*100. Data were analyzed by a two-way ANOVA using a Bonferroni post-hoc test, *P<0.05, **P<0.01, ***P<0.001.
Morphine sulphate (10 mg/kg) was dissolved in 0.9% NSS (vehicle). The formulations were administered SC 1 hour prior to testing against vehicle. Data were analyzed by a two-way ANOVA using a Bonferroni multiple comparisons test, *P<0.05, ***P<0.001.
Morphine sulphate (10 mg/kg) was dissolved in 0.9% NSS (vehicle). The formulations were administered SC 1 hour prior to testing against vehicle. % MPE=Percent Maximum Possible Effect. % MPE=(test latency-baseline)/(cutoff(20 s)-baseline)*100. Data were analyzed by a two-way ANOVA using a Bonferroni multiple comparisons test, ***P<0.001.
The positive control, morphine sulfate in 0.9% NS was administered SC 1 hour prior to testing. Rats were assessed the day prior (BL) and then 1, 3 and 5 hours post-dosing. Tail Flick was set to 40 intensity and cutoff 20 seconds. Data were analyzed by a two-way ANOVA using a Bonferroni Multiple Comparisons Test, where *P<0.05,***P<0.001 and ****P<0.0001. Data are represented as the means+S.E.M of two combined studies.
Oxycodone hydrochloride (0.3-5 mg/kg) was dissolved in 0.9% normal saline solution (NSS)(vehicle) and administered SC 1 hour prior to testing against vehicle. Data were analyzed by a two-way ANOVA using a Bonferroni multiple comparisons test, ****P<0.001.
Oxycodone hydrochloride (0.3-5 mg/kg) was dissolved in 0.9% normal saline solution (NSS)(vehicle) and administered SC 1 hour prior to testing against vehicle. % MPE=Percent Maximum Possible Effect. % MPE=(test latency-baseline)/(cutoff(20 s)-baseline)*100. Data were analyzed by a two-way ANOVA using a Bonferroni multiple comparisons test, ****P<0.001.
Oxycodone HCl and vehicle were administered SC 1 hour prior to testing. Rats were assessed one day prior (BL) and then 1, 3 and 5 hours post-oxycodone administration. The tail flick was set to an intensity of 40 and the cutoff was 20 seconds. Oxycodone was dissolved in 0.9% (vehicle). […] Data were analyzed by a two-way ANOVA followed by the Bonferroni Multiple Comparisons Test where, *P<0.05 and ****P<0.001.
Oxycodone HCl was administered PO 1 hour prior to testing, while morphine sulfate, the positive control, was administered SC 1 Hour prior to testing. Behavior was assessed the day prior (BL) to dosing, and then 1, 3, 5 and 24 hours post-compound administration. The tail flick was set to an intensity of 40 and 20 seconds was used as the cutoff. Oxycodone was dissolved in water (vehicle), while morphine was dissolved in 0.9% NS. Data were analyzed by a two-way ANOVA using a Bonferroni Multiple Comparisons Test, where *P<0.05, **P<0.01, ***P<0.001 and * * * *P<0.0001.
Rats were assessed for tail flick latency the day prior to dosing, then 1.5, 3 and 5 hours post-morphine administration. Data were analyzed by a two-way ANOVA using the Bonferroni Multiple Comparisons Test, where ****P<0.0001 compared to vehicle+vehicle. Data are represented as the means+S.E.M.
Rats were assessed for thermal latency 1.5, 3 and 5 hours post-morphine administration. % MPE=Percent Maximum Possible Effect. % MPE=(test latency-baseline)/(cutoff(20 s)-baseline)*100. Data were analyzed by a two-way ANOVA using a Bonferroni multiple comparisons test for post-hoc analysis where *P<0.05 and ****P<0.001. Data are represented as the means+SEM.
Rats were tested 1 hour after oxycodone injection.

[5] = morphine sulphate 1-10 mg/kg SC 1 hour prior to testing
[6] = oxycodone hydrochloride 0.3-5 mg/kg SC 1 hour prior to testing

SMILES | GI transit (% of the small intestine travelled by a charcoal meal) (male Sprague-Dawley rats [1]; morphine sulfate 1-10 mg/kg SC, 0.5 hour before charcoal meal) | hot plate % MPE (male Sprague-Dawley rats [2]; [5]) | hot plate latency to nocifensive response (male Sprague-Dawley rats [2]; [5]) | stomach weight (gastric emptying) (male Sprague-Dawley rats [3]) | tail flick % MPE (male Sprague-Dawley rats [4]; [5]) | tail flick latency to nocifensive response (male Sprague-Dawley rats [4]; [5]) | tolerance to inhibition of GI transit on repeated dosing (male Sprague-Dawley rats [1]; oxycodone HCl PO once daily for 5 days (chronic) vs single dose on day 5 (acute)) | GI transit (% of the small intestine travelled by a charcoal meal) (male Sprague-Dawley rats [1]; oxycodone hydrochloride 0.3-5 mg/kg SC, 1 hour before charcoal meal) | rats found dead (male Sprague-Dawley rats [2]; oxycodone HCl 10 mg/kg SC, at the 3 hr time point) | hot plate MED (acute pain) (male Sprague-Dawley rats [2]; oxycodone HCl PO) | hot plate MED (acute pain) (male Sprague-Dawley rats [2]; oxycodone HCl SC) | hot plate % MPE (male Sprague-Dawley rats [2]; [6]) | hot plate latency to nocifensive response (male Sprague-Dawley rats [2]; [6]) | rats found dead (male Sprague-Dawley rats [4]; oxycodone HCl 10 mg/kg SC dosing group, at the 3 hr time point) | tail flick MED (acute pain) (male Sprague-Dawley rats [4]; oxycodone HCl PO) | tail flick MED (acute pain) (male Sprague-Dawley rats [4]; oxycodone HCl SC) | tail flick % MPE (male Sprague-Dawley rats [4]; [6]) | tail flick latency to nocifensive response (male Sprague-Dawley rats [4]; [6])
CN1CC[C@]23c4c5ccc(O)c4O[C@H]2[C@@H](O)C=C[C@H]3[C@H]1C5.O=S(=O)(O)O [morphine, morphine sulphate] | decreases gastrointestinal transit | increased % of the maximal possible effect | increased latency to nocifensive response | increased stomach weight due to delayed gastric emptying | increased % of the maximal possible effect | increased latency to nocifensive response | – | – | – | – | – | – | – | – | – | – | – | –
COc1ccc2c3c1O[C@H]1C(=O)CC[C@@]4(O)[C@@H](C2)N(C)CC[C@]314.Cl [oxycodone, oxycodone hydrochloride] | – | – | – | – | – | – | produces some tolerances to its acute effect on the inhibition of GI transit | decreases gastrointestinal transit | 4 out of 10 | 10 mg/kg | 3 mg/kg | increased % of the maximal possible effect | increased latency to nocifensive response | 4 out of 10 | 10 mg/kg | 3 mg/kg | increased % of the maximal possible effect | increased latency to nocifensive response
